Reference: patent US20050113371A1, “Antifungal agent for topical use” (priority 2002, published 2005)
Where a name gives a salt, the structure may show the parent alone. Read-outs that look alike come from different tables or passages of the source.

Experiments:
Trichophyton rubrum = experiment: Antifungal activity on Sabouraud agar medium, MIC and FIC index (Test Examples 1 and 2); type: cell-based; settings: cultured 7 days
Procedure: (§1) Amorolfine hydrochloride and each specimen (hereinafter referred to as “medicine”) at a mass ratio of 1:1 were dissolved in dimethyl sulfoxide (DMSO). Two-fold dilution series were prepared with DMSO. In the determination of the antifungal activity, the medicine and the medium were mixed together at a ratio of 1:99.
(§2) Sabouraud agar medium (Eiken) was used as a susceptibility determination medium. A microbe suspension containing 10^6 spores/mL of Candida albicans or about 10^6 conidia/mL of ringworm fungus was prepared. 5 μl of the suspension was inoculated on the Sabouraud agar medium containing the medicine with a micro-planter (a product of Sakuma Seisakusho). Candida albicans was cultured for 2 days and the tinea was cultured for 7 days. […]

[1] = system: Trichophyton mentagrophytes; experiment: as above; type: cell-based; settings: cultured 7 days
Procedure: as §1, §2

[2] = rabbit, in vivo; cited from earlier work
[3] = male and female rabbits, percutaneous; cited from earlier work
[4] = system: Trichophyton mentagrophytes TIMM 1189; experiment: Tinea infection model of guinea pigs, culture test (Test Example 3); type: in vivo; settings: 0.75 mass % in polyethylene glycol 400 (combination 1:2), 0.1 mL once a day for 5 days from 3 days after inoculation; culture on 5th day after last application; 10 loci
Procedure: Amorolfine hydrochloride and each specimen (hereinafter referred to as “medicine”) at a mass ratio of 1:2 were dissolved in polyethylene glycol 400 to obtain a final concentration of 0.75% mass ratio. Each of amorolfine hydrochloride and the medicines was separately dissolved in polyethylene glycol 400 to obtain solutions having the final concentration of 0.75 mass %.
Male Hartley guinea pigs (Japan SLC Co., Ltd.; 6 weeks) were used. In the course of the test, they were kept separately from one another in an isolator (Negative rack, CLEA JAPAN, Inc.). They could freely have a solid food (G standard, Nihon Nosan Kogyo KK) and water.
Trichophyton mentagrophytes TIMM 1189 was cultured on slant Sabouraud glucose agar medium at 27° C. for 14 days. Then, sterilized saline containing 0.05% of Tween 80 was added thereto to obtain conidia. The resultant suspension was filtered through a cell strainer (FALCON Co., Ltd.) to remove large mycelian masses. The number of conidia was counted with hemocytometer. The conidia were diluted to 4×10^7/mL with sterilized saline containing 0.05% of Tween 80 to obtain the conidial suspension for inoculation.
The back of each guinea pig was shaved. Then, a circular inoculation part having a diameter of 2 cm was positioned on both sides of the spinal column. A gummed tape was applied thereto and then peeled. These steps was repeated three times, whereby the hair was pulled out of the skin in both parts and, at the same time, the top of the corneous layer of the skin was peeled off. The remaining hair was completely removed with tweezers. […]
When at least one of the 10 small pieces taken from one inoculated locus of the skin was the positive after the culture, the inoculated locus was judged to be positive. The ratio of positive loci after culture was calculated from the number of the cultured positive pieces in the total 10 inoculated loci in each experiment group.
The number of the cultured positive small pieces in the inoculated portion was scored as will be described below to determine the infection. […]

[5] = rats, cited from earlier work
Candida albicans [6] = settings: cited from earlier work
[7] = system: Trichophyton mentagrophytes; settings: at a low concentration; cited from earlier work
[8] = mice, cited from earlier work
[9] = in vivo; cited from earlier work
Candida albicans [10] = experiment: Antifungal activity on Sabouraud agar medium, MIC and FIC index (Test Examples 1 and 2); type: cell-based; settings: cultured 2 days
Procedure: as §1
(§3) Sabouraud agar medium (Eiken) was used as a susceptibility determination medium. A microbe suspension containing 10^6 spores/mL of Candida albicans or about 10^6 conidia/mL of ringworm fungus was prepared. 5 μl of the suspension was inoculated on the Sabouraud agar medium containing the medicine with a micro-planter (a product of Sakuma Seisakusho). Candida albicans was cultured for 2 days and the tinea was cultured for 7 days.
The effect obtained by the combination was judged on the basis of the following standards (FIC index): • >2: antagonism • 2>and 1<: additive action • 1>: potentiation
(1) Amorolfine hydrochloride and each specimen (hereinafter referred to as “medicine”) at a mass ratio of 100:1 to 1:100 were dissolved in dimethyl sulfoxide (DMSO). Two-fold dilution series were prepared with DMSO. In the determination of the antifungal activity, the medicine and the medium were mixed together at a ratio of 1:99.
(2) Amorolfine hydrochloride and each specimen (hereinafter referred to as “medicine”) at a mass ratio of 1:3 to 3:1 were dissolved in dimethyl sulfoxide (DMSO). Two-fold dilution series were prepared with DMSO. In the determination of the antifungal activity, the medicine and the medium were mixed together at a ratio of 1:99.
as §3, with “conidia/mL of each of two kinds of ringworm fungus” for “conidia/mL of ringworm fungus”, “agar medium with a” for “agar medium containing the medicine with a”, “and the Tinea fungus was cultured” for “and the tinea was cultured”

[11] = Test Example 1, amorolfine hydrochloride + medicine at mass ratio 1:1

Q: With `CN(C/C=C/C#CC(C)(C)C)Cc1cccc2ccccc12` [terbinafine hydrochloride, (E)-N-(6,6-dimethyl-2-hepten-4-ynyl)-N-methyl-1-naphthalenemethylamine hydrochloride] as the molecule, how does the “FIC index obtained by the combination of amorolfine hydrochloride with another medicine” value (from here on “FIC index obtained by the combination”) (Trichophyton rubrum; [11]) read?
A: 0.75

Q: And the MIC (Trichophyton rubrum; Trichophyton rubrum, 168 h, Test Example 2, geometric mean MIC of two strains, read-out: Minimum inhibitory concentration (MIC))?
A: 0.004 mg/L

Q: What about the “FIC index obtained by the combination” value [1, 11] of the same molecule?
A: 0.52

Q: And the MIC ([1]; Trichophyton mentagrophytes, 168 h, Test Example 2, geometric mean MIC of two strains, read-out: Minimum inhibitory concentration (MIC))?
A: 0.011 mg/L

Q: And the localized irritation [2]?
A: a weak irritation or a light cumulative irritation

Q: And the LD50 [3]?
A: > 1500 mg/kg

Q: What about the “rate of positive loci after culture” value [4] of the same molecule?
A: 100%

Q: And the LD50 ([5]; intravenous injection, female)?
A: 206 mg/kg

Q: What about the LD50 ([5]; intravenous injection, male) of the same molecule?
A: 220 mg/kg

Q: What about the LD50 ([5]; oral, male and female) of the same molecule?
A: > 4000 mg/kg

Q: And the LD50 ([5]; percutaneous, male and female)?
A: > 2000 mg/kg

Q: And the LD50 ([5]; subcutaneous, male and female)?
A: > 2000 mg/kg

Q: And the “concentration that exhibits a fungistatic effect on the propagation of the yeast form” value (Candida albicans [6])?
A: at least 1 μg/mL

Q: And the “concentration that inhibits the conversion from yeast form to mycelial form” value (Candida albicans [6])?
A: at least 0.098 μg/mL

Q: What about the “effect on germinated conidium of Trichophyton mentagrophytes” value [7] of the same molecule?
A: fungicidal effect

Q: What about the LD50 ([8]; intravenous injection, female) of the same molecule?
A: 377 mg/kg

Q: What about the LD50 ([8]; intravenous injection, male) of the same molecule?
A: 410 mg/kg

Q: What about the LD50 ([8]; oral, female) of the same molecule?
A: > 4000 mg/kg

Q: What about the LD50 ([8]; oral, male) of the same molecule?
A: 3570 mg/kg

Q: And the LD50 ([8]; subcutaneous, male and female)?
A: > 2000 mg/kg

Q: What about the “increase in the body weight of dams” value [9] of the same molecule?
A: suppression on the increase in the body weight of dams

Q: What about the “influence on the reproduction and the growth of the embryos” value [9] of the same molecule?
A: no influence was recognized

Q: And the MIC (Candida albicans [10]; Candida albicans, 48 h, Test Example 2, geometric mean MIC of two strains, read-out: Minimum inhibitory concentration (MIC))?
A: > 8 mg/L

Q: What about the “FIC index obtained by the combination” value (Candida albicans [10]; [11]) of the same molecule?
A: 0.27

Q: And the “Minimum inhibitory concentration (MIC)” value (Candida albicans [10]; Test Example 2, geometric mean MIC of two strains, listed as T, hydrochloride)?
A: >8.0 mg/L
